Source: patent US9409978B2, “Modulation of midbody derivatives” (University of Massachusetts, priority 2011, dated 2016)
“Also recorded” adds a separate entry of the source.

Experiments:
HeLa cells = experiment: Lysosome inhibition, MBd quantification in HeLa cells; format: cell-based; conditions: lysosomal inhibition 22 hours
Source text: (§1) Each dividing cell was considered one cell.

MCF-7 cancer cells = experiment: Lysosome inhibition, MBd quantification in MCF-7 cells; format: cell-based; conditions: lysosomal inhibition 22 hours
Source text: as §1

hESCs (H1, H9) = experiment: Lysosome inhibition, MBd quantification in hESCs; conditions: chloroquine treatment
Source text: Quantification was based on the markers that: 1) labeled both mitotic MBs and MBds (MKLP1, mgcRACGAP, or Cep55); 2) labeled MBs differently than MBds (α-tubulin or Aurora B); 3) defined cell boundaries (α-tubulin or ZO-1). Because Cep55, MKLP1, and mgcRACGAP also label centrioles and spindle midzones, cells were co-stained with centrosome antibody (e.g. 5051), and a size threshold for MB/MBds (1 μm) was introduced to exclude non-MBd structures. Structures with MB-specific or non-MB/MBd labeling were excluded from MBd counts. Cell counts: For hESCs, 5-11 colonies were imaged from triplicates in each experiment. For other cell types, random fields were imaged until n>500 cells. Each dividing cell was considered one cell.
Cells at 70% confluency were incubated with chloroquine (200 μM/PBS; Sigma), E64d+ pepstatin A (E64d/PepA) (10 μg ml^−1/DMSO each; Sigma) (Klionsky et al., 2008, Autophagy, 4:151-175; Komatsu et al., 2007, Cell, 131:1149-63) or solvents alone (controls) for 22 hours before fixation. Lysosome inhibition was confirmed and visualized after 12-hour DQ-Red BSA (10 μg ml^−1; Invitrogen) incubation.

hRPE-1 cells = experiment: Lysosome inhibition, MBd quantification in hRPE-1 cells; format: cell-based; conditions: lysosomal inhibition 22 hours
Source text: as §1

How did the “percent of MBd+ cells (MBd levels)” value (HeLa cells) turn out when CCN(CC)CCCC(C)Nc1ccnc2cc(Cl)ccc12 (stereo not shown) [chloroquine] was run?
The value was “modest increase; also recorded: increase the percent of MBd+ cells”.

What about the “presence of MBds in lysosomes” value (HeLa cells) of the same compound?
The value was “presence of MBds in lysosomes”.

What about the “percent of MBd+ cells (MBd levels)” value (MCF-7 cancer cells) of the same compound?
The value was “largely unaffected; also recorded: no detectable effect”.

And the “percent of MBds in lysosomes” value (MCF-7 cancer cells)?
Its value is “largely unaffected”.

What about the “effect of treatment on the cells (differentiation, cell death)” value (hESCs (H1, H9)) of the same compound?
Its value is “caused differentiation and cell death”.

And the “percent of MBds found within lysosomes” value (hRPE-1 cells; LAMP2 lysosome marker)?
Its value is “elevated; also recorded: presence of MBds in lysosomes”.

And the “percent of MBd+ cells (MBd levels)” value (hRPE-1 cells; chloroquine 200 μM or E64d/PepA 10 μg/ml each)?
The value was “elevated; also recorded: increase the percent of MBd+ cells”.
